# From patent US4795643A, “Medicament with a delayed release of active ingredient” (priority 1987, dated 1989)
# Test: Dissolution Paddle Apparatus (U.S. Pharmacopoeia XX): rate of release of active ingredient from the capsule in water
# Format: physicochemical
# Procedure: For this purpose, the total amount of active ingredient released (cumulative values) is determined after fixed periods of time, in particular after 1, 2, 4, 6 and 8 hours, and this amount is expressed in % by weight of the amount of active ingredient contained in the capsule.
smiles,measurement,setting,value
"COc1ccc(C2Sc3ccccc3N(CCN(C)C)C(=O)C2OC(C)=O)cc1.Cl (stereo not shown) [diltiazem.HCl, 3-acetoxy-5-(2-dimethylaminoethyl)-2,3-dihydro-2-(4-methoxyphenyl)-1,5-benzothiazepin-4(5H)-one hydrochloride]",release of diltiazem.HCl,"absence of a polymer, 1.5 hours",92.5%
same,release of diltiazem.HCl,"ethylcellulose, HLB of 10.5, 6 hours",68.5%
same,release of diltiazem.HCl,"ethylcellulose, HLB of 11.5, 3 hours",84.5%
"CC(C)Cc1ccc(C(C)C(=O)O)cc1 (stereo not shown) [ibuprofen, 2-(4-isobutylphenyl)-propionic acid]",release of ibuprofen,"PEG 300-stearate (HLB=9 to 10) with Eudragit S 100 added, 2 hours",91.4%
same,release of ibuprofen,"PEG 1500-stearate (HLB=17) with Eudragit S 100 added, 8 hours",84.8%
same,release of ibuprofen,"mixture with PEG 300-stearate, 1 hour",98.1%
same,release of ibuprofen,"mixture with PEG 1500-stearate, 0.25 hour",97%
